Measurements: article PMC10975178, “Evaluation on the Potential for Hepatotoxic Components from Herba Epimedii to Induce Apoptosis in HepG2 Cells and the Analysis of the Influence of Metabolism in Liver Microsomes” (Molecules, 2024)
Where two headings read alike, the source gives them in different places.

What was measured:
[1] = assay type: in vitro ADME, humans; conditions: human, microsomes, 5 μM; for amount remaining: 1 h; for final amount remaining: 60 min
Description: The incubation mixtures were prepared following the instructions from the manufacturer of the metabolic stability kits and contained sagittatoside A, icariside I, baohuoside I, and icaritin, of which the final concentrations were 49, 50, 32 and 3.8 μg/mL. The final concentration of organic solvents in the incubation mixture was 1% (v/v). After preincubation for 5 min at 37 °C, metabolic reactions of phase I and II were both initiated by the addition of human liver microsomes (final concentration, 0.20 mg protein/mL). Phase I metabolism is mediated by the enzyme cytochrome P450 (CYP), and phase II metabolism is mediated by UDP-glucuronosyltransferase (UGT). The whole reaction process was performed under aerobic conditions. After 30 min, an equal volume of cold acetonitrile was added and vortexed for 1 min to terminate the reactions. Subsequently, 200 μL of the resulting solution was centrifuged at 3000 rpm and 4 °C for 10 min. Then, 100 μL of supernatant was dried at 40 °C with nitrogen gas, and the residue was redissolved in 100 μL with fresh medium to prepare for treating cells. Negative controls (incubation without substrate) were prepared in the same manner.
The incubation mixtures were also prepared following Section 2.4 and contained sagittatoside A, icariside I, baohuoside I, and icaritin, of which the final concentrations were 5.00 μM. After the mixtures were incubated separately in phase I or phase II metabolism systems for 5, 10, 15, 20, 30, 45 and 60 min, the reactions were terminated by adding an equal volume of cold acetonitrile (with 7 μM IS) and vortex mixing for 1 min. Subsequently, 200 μL of the resulting solution was centrifuged at 3000 rpm and 4 °C for 10 min. Then, 100 μL of supernatant was dried at 40 °C with nitrogen gas, and the residue was redissolved in 100 μL of 50% methanol to prepare the samples for HPLC–MS/MS detection. Time zero samples (prepared by first adding cold acetonitrile and then adding NADPH for phase I metabolism or NADPH and UDPGA for phase II metabolism) and negative controls (incubation without substrate) were prepared separately in the same manner.
HPLC analysis was performed on an AB Sciex ExionLC HPLC system (Santa Clara, CA, USA) equipped with an autosampler, a vacuum degasser unit, a quaternary pump, a diode array detector (DAD) and a column compartment. Samples were separated on an ACQUITY ΜPLC BEH C18 column (2.1 × 100 mm, 1.7 μm) connected to an ACQUITY ΜPLC BEH C18 precolumn (2.1 × 5 mm, 1.7 μm) at 40 °C. The mobile phases were water with 0.05% formic acid (A) and methanol-acetonitrile (v/v 1:1) with 0.05% formic acid (B), and the elution gradient was as follows: 70% A (0.00–1.00 min), 2% A (2.50–3.50 min), and 70% A (3.51–7.00 min). The flow rate was set at 0.23 mL/min, and the injection volume was 5 μL.
Electrospray ionization–mass spectrometry (ESI–MS) analyses were performed on an AB Sciex QTRAP 5500 (EG250911902) mass spectrometer (Santa Clara, CA, USA). Detection was performed with multiple reaction monitoring (MRM) in ESI negative ion mode. The spray voltage was set to −4500 V, the curtain gas was 25 psi, the collision gas was set to medium, both auxiliary gases 1 and 2 were used at 45 psi, and the heating temperature was 550 °C.
In accordance with the above HPLC–MS/MS analysis method, the content of each compound in the sample at each time point was measured. Then, using the substrate depletion method, the content of each compound in the time zero sample was set as 100%, and the percent residual substrate was calculated. The relationship between the natural logarithmic value of the percent residual substrate and time point was explored by linear regression using GraphPad Prism 5.0 software, and the slope (−k) was obtained. […]

in vitro [2] = assay type: in vitro ADME, beagle dogs; conditions: beagle, dog, microsomes; for amount remaining: 1 h, 5 μM
in vitro [3] = assay type: in vitro ADME, rhesus monkeys; conditions: rhesus monkey, microsomes; for final amount remaining: 60 min, 5 μM
in vitro [4] = assay type: in vitro ADME, beagle dogs; conditions: beagle, dog, microsomes; for final amount remaining: 60 min, 5 μM
in vitro [5] = assay type: in vitro ADME, mice; conditions: mouse, microsomes; for final amount remaining: 60 min, 5 μM
in vitro [6] = assay type: in vitro ADME, mice; conditions: mouse, microsomes; for amount remaining: 1 h, 5 μM
[7] = assay type: in vitro ADME, SD rats; conditions: SD, rat, microsomes, 60 min, 5 μM
[8] = assay type: in vitro ADME, SD rats; conditions: SD, rat, microsomes, 1 h, 5 μM
HepG2 cells = test: HepG2 cell apoptosis by flow cytometry (Annexin V-FITC/PI); assay type: cell-based; conditions: 24 h
Description: HepG2 cells were cultured in Roswell Park Memorial Institute (RPMI) 1640 medium (GIBCO, Grand Island, NY, USA) supplemented with 10% heat-inactivated fetal bovine serum (PAN Biotech GmbH, Aidenbach, Germany), 100 U/mL penicillin, and 100 μg/mL streptomycin. The cells were maintained in a humidified atmosphere with 5% CO2 at 37 °C. Upon reaching 90% confluence, the cells were prepared as single-cell suspensions at a density of 1 × 10^4 cells/mL by treatment with 0.25% trypsin with 0.02% EDTA and then dispensed into 12-well plates (Corning, NY, USA) with a total volume of 1.5 mL per well. After culturing for 24 h, the medium was discarded, and the cells were incubated with fresh medium or medium containing different hepatotoxic compounds at various concentrations for an additional 24 h. […] After treatment, the cells were collected for apoptosis analysis. To investigate the effects of the hepatotoxic compounds on HepG2 cell apoptosis, flow cytometry was performed with a FACSCalibur flow cytometer (BD Biosciences) using an Annexin V-FITC apoptosis detection kit. The cells were prepared according to the manufacturer’s instructions. Briefly, the collected cell pellets were washed three times by centrifugation at 2000 rpm and 4 °C for 5 min with PBS and resuspended in binding buffer. Then, the cells were incubated with Annexin V-FITC for 15 min, propidium iodide (PI) was added, and the cells were incubated for another 5 min. The whole labeling process was performed in the dark. After fluorescent labeling, the cell suspension was immediately analyzed by flow cytometry. Cells in the early phases of apoptosis can bind Annexin V-FITC but exclude PI, while cells in late apoptosis or those that are necrotic can be stained with Annexin V-FITC and PI simultaneously.

Row | Structure (SMILES) | amount remaining [1] [%] | final amount remaining [1] [%] | CLint scaled at 5 μM (in vitro [2]) [mL/min/kg] | amount remaining (in vitro [2]) [%] | final amount remaining (in vitro [3]) [%] | CLint scaled at 5 μM (in vitro [4]) [mL/min/kg] | final amount remaining (in vitro [4]) [%] | final amount remaining (in vitro [5]) [%] | amount remaining (in vitro [6]) [%] | final amount remaining [7] [%] | amount remaining [8] [%] | apoptosis rate (HepG2 cells; 32 μg/mL, mean ± SD n = 3, p < 0.05 vs control) [%] | CLint scaled at 5 μM (in vitro [3]) [mL/min/kg] | CLint scaled at 5 μM (in vitro [5]) [mL/min/kg] | CLint scaled at 5 μM (in vitro [6]) [mL/min/kg] | apoptosis rate (HepG2 cells; 50 μg/mL, mean ± SD n = 3, no change vs control) [%] | apoptosis rate (HepG2 cells; 3.8 μg/mL, mean ± SD n = 3, p < 0.01 vs control) [%]
1 | COc1ccc(-c2oc3c(CC=C(C)C)c(O)cc(O)c3c(=O)c2O[C@@H]2O[C@@H](C)[C@H](O)[C@@H](O)[C@H]2O)cc1 [baohuoside I] | 20.74 ± 0.39 | 5.56 ± 0.60 | 27.6 | 11.74 ± 0.78 | 0.86 ± 0.17 | 28.4 | 5.69 ± 0.33 | 11.64 ± 1.63 | 28.58 ± 4.12 | 1.55 ± 0.33 | 8.52 ± 0.15 | 3.93 ± 0.20 |  |  |  |  | 
2 | COc1ccc(-c2oc3c(CC=C(C)C)c(O[C@@H]4O[C@H](CO)[C@@H](O)[C@H](O)[C@H]4O)cc(O)c3c(=O)c2O)cc1 [icariside I] | 10.08 ± 0.43 | 45.62 ± 1.52 | 25.2 | 34.93 ± 2.83 | 17.23 ± 5.20 | 24.7 | 30.79 ± 3.26 | 12.18 ± 0.64 | 7.69 ± 1.17 | 22.71 ± 10.94 | 2.38 ± 0.32 |  | 36.4 | 79.3 | 80.4 | 2.39 ± 0.34 | 
3 | COc1ccc(-c2oc3c(CC=C(C)C)c(O)cc(O)c3c(=O)c2O)cc1 [icaritin] | 36.23 ± 1.12 | 20.51 ± 0.97 |  | 16.75 ± 0.20 | 14.86 ± 0.76 |  | 4.42 ± 0.67 | 7.73 ± 0.17 | 28.55 ± 0.04 | 19.44 ± 0.36 | 48.95 ± 4.13 |  |  |  |  |  | 25.93 ± 0.66
